Source: US20240182445A1 (ONO PHARMACEUTICAL CO., LTD., priority 2019, published 2024)

Each compound was assayed against T1, human TREK-1 (Homo sapiens, UniProt O95069) (assay: TREK-1 Thallium (Tl+) flux assay, Method 1). Conditions: TREK-1 Thallium (Tl+) flux assay, Method 1.
T1 construct: expressed in transfected cells
T1 sequence (O95069 1-426): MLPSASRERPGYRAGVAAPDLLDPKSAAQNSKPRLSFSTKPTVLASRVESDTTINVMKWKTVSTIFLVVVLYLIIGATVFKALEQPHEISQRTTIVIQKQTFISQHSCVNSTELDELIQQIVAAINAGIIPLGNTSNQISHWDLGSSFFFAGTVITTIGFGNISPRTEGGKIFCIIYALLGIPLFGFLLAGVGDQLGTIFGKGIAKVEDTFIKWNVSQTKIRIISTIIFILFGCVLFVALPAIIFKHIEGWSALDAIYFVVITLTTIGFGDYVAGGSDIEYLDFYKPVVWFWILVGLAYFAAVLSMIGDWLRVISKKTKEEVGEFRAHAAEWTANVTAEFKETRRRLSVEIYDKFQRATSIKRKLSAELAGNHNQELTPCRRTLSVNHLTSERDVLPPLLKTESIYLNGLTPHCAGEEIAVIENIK
Format: cell-based
Outline: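 CHO-K1 cells stably expressing human TREK-1, loaded with Thallos dye, received compound or 0.3% DMSO vehicle for 10 min before thallium stimulus buffer. ΔRatio is fluorescence at 25 s after thallium addition over mean pre-addition fluorescence; % inhibition calculated from it.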

| IC50 [nM] | Structure (SMILES) |
| --- | --- |
| 4820 | CC(=O)N1CCOC(Cn2ncc(Cl)c2C(=O)Nc2ccc(OCc3ccccc3)cc2C)C1 (centres unmarked) [Compound 423, 1-((4-acetylmorpholin-2-yl)methyl)-N-(4-(benzyloxy)-2-methylphenyl)-4-chloro-1H-pyrazole-5-carboxamide] |
| 2310 | Cc1cc(OCc2ccccc2)ccc1NC(=O)c1c(Cl)cnn1C1CCN(C(=O)C(C)(C)C)CC1 [Compound 405, N-(4-(benzyloxy)-2-methylphenyl)-4-chloro-1-(1-pivaloylpiperidin-4-yl)-1H-pyrazole-5-carboxamide] |

Same assay, conditions: TREK-1 Thallium (Tl+) flux assay; no *^12 (Method 2) mark on these rows

| IC50 [nM] | Structure (SMILES) |
| --- | --- |
| 310 | Cc1cc(C#Cc2cccs2)cnc1NC(=O)c1c(Cl)cnn1[C@H]1C[C@@H]2CN(C(=O)C3CC3)C[C@@H]2C1 [Compound 204, 4-chloro-1-[(3aR,5s,6aS)-2-(cyclopropanecarbonyl)octahydrocyclo-penta[c]pyrrol-5-yl]-N-{3-methyl-5-[(thiophen-2-yl)ethynyl]pyridin-2-yl}-1H-pyrazole-5-carboxamide] |
| 490 | CC1(Cn2ncc(Cl)c2C(=O)Nc2ncc(C#Cc3ccccc3)cc2F)CCCO1 (centres unmarked) [Compound 279, 4-chloro-N-(3-fluoro-5-(phenylethynyl)pyridin-2-yl)-1-((2-methyltetrahydrofuran-2-yl)methyl)-1H-pyrazole-5-carboxamide] |
| 890 | COc1c(F)cc(-c2cnc(NC(=O)c3c(Cl)cnn3C3CCN(C(=O)OC(C)(C)C)CC3)c(C)c2)cc1F [Compound 386, tert-butyl 4-(4-chloro-5-((5-(3,5-difluoro-4-methoxyphenyl)-3-methylpyridin-2-yl)carbamoyl)-1H-pyrazol-1-yl)piperidine-1-carboxylate] |
| 310 | Cc1cc(C#Cc2cccc(F)c2)cnc1NC(=O)c1c(Cl)cnn1C1CCN(C(=O)C(C)(C)C)CC1 [Compound 205, 4-chloro-N-(5-((3-fluorophenyl)ethynyl)-3-methylpyridin-2-yl)-1-(1-pivaloylpiperidin-4-yl)-1H-pyrazole-5-carboxamide] |
| 900 | CC(C)(C)OC(=O)N[C@H]1CC[C@H](n2ncc(Cl)c2C(=O)Nc2ncc(C#Cc3ccccc3)cc2F)CC1 [Compound 360, tert-butyl (trans-4-(4-chloro-5-((3-fluoro-5-(phenylethynyl)pyridin-2-yl)carbamoyl)-1H-pyrazol-1-yl)cyclohexyl)carbamate] |
| 450 | Cc1cc(C#Cc2ccccc2)cnc1NC(=O)c1c(Cl)cnn1C1CCN(C(=O)C(F)(F)F)CC1 [Compound 268, 4-chloro-N-[3-methyl-5-(2-phenylethynyl)-2-pyridyl]-2-[1-(2,2,2-trifluoroacetyl)-4-piperidyl]pyrazole-3-carboxamide] |
| 390 | Cc1cc(C#Cc2ccc(F)cc2)cnc1NC(=O)c1c(Cl)cnn1CCN1CCN(C(=O)C2COCCO2)CC1 (centres unmarked) [Compound 246, 1-(2-(4-(1,4-dioxane-2-carbonyl)piperazin-1-yl)ethyl)-4-chloro-N-(5-((4-fluorophenyl)ethynyl)-3-methylpyridin-2-yl)-1H-pyrazole-5-carboxamide] |
| 310 | CC(=O)N1CC[C@@H](n2ncc(Cl)c2C(=O)Nc2ncc(C#Cc3ccccc3)cc2F)C1 [Compound 203, (R)-1-(1-acetylpyrrolidin-3-yl)-4-chloro-N-(3-fluoro-5-(phenylethynyl)pyridin-2-yl)-1H-pyrazole-5-carboxamide] |
| 720 | CC(C)(C)OC(=O)N1CC[C@@H](n2ncc(Cl)c2C(=O)Nc2ncc(C#Cc3ccccc3)cc2F)[C@H](F)C1 [Compound 337, tert-butyl (3R,4R)-4-(4-chloro-5-((3-fluoro-5-(phenylethynyl)pyridin-2-yl)carbamoyl)-1H-pyrazol-1-yl)-3-fluoropiperidine-1-carboxylate] |
| 1540 | O=C(Nc1ncc(C#Cc2ccccc2)cc1Cl)c1c(Cl)cnn1[C@@H]1CCOC1 [Compound 376, (R)-4-chloro-N-(3-chloro-5-(phenylethynyl)pyridin-2-yl)-1-(tetrahydrofuran-3-yl)-1H-pyrazole-5-carboxamide] |
| 1210 | COc1ccc(-c2cnc(NC(=O)c3c(Cl)cnn3C3CCN(C(=O)OC(C)(C)C)CC3)c(C)c2)cc1C(C)C [Compound 390, tert-butyl 4-(4-chloro-5-((5-(3-isopropyl-4-methoxyphenyl)-3-methylpyridin-2-yl)carbamoyl)-1H-pyrazol-1-yl)piperidine-1-carboxylate] |
| 370 | CC(C)(C)OC(=O)N1CCC(n2ncc(Cl)c2C(=O)Nc2ncc(C#Cc3ccccc3)cc2F)C1 (centres unmarked) [Compound 237, tert-butyl 3-(4-chloro-5-((3-fluoro-5-(phenylethynyl)pyridin-2-yl)carbamoyl)-1H-pyrazol-1-yl)pyrrolidine-1-carboxylate] |

Same assay, conditions: TREK-1 Thallium (Tl+) flux assay; values without footnote *12 are Method 1

| IC50 [nM] | Structure (SMILES) |
| --- | --- |
| 130 | CC(=O)N1CC(n2ncc(Cl)c2C(=O)Nc2ncc(C#Cc3ccccc3)cc2F)C1 [Compound 40, 1-(1-acetylazetidin-3-yl)-4-chloro-N-(3-fluoro-5-(phenylethynyl)pyridin-2-yl)-1H-pyrazole-5-carboxamide] |
| 220 | Cc1cc(C#Cc2ccccc2)cnc1NC(=O)c1c(Cl)cnn1C1CCN(C(=O)C(C)C)C1 (centres unmarked) [Compound 136, 4-chloro-1-(1-isobutyrylpyrrolidin-3-yl)-N-(3-methyl-5-(phenylethynyl)pyridin-2-yl)-1H-pyrazole-5-carboxamide] |
| 160 | CC(=O)N1CC[C@H](Cn2ncc(Cl)c2C(=O)Nc2ncc(C#Cc3ccccc3)cc2C)[C@H](F)C1 [Compound 82, 1-(((3S,4R)-1-acetyl-3-fluoropiperidin-4-yl)methyl)-4-chloro-N-(3-methyl-5-(phenylethynyl)pyridin-2-yl)-1H-pyrazole-5-carboxamide] |
| 220 | O=C(Nc1ncc(C#Cc2ccccc2)cc1F)c1c(Cl)cnn1C1CCN(C(=O)C2CC2)CC1 [Compound 130, 4-chloro-1-(1-(cyclopropanecarbonyl)piperidin-4-yl)-N-(3-fluoro-5-(phenylethynyl)pyridin-2-yl)-1H-pyrazole-5-carboxamide] |
| 150 | N#CCCCn1ncc(Cl)c1C(=O)Nc1ncc(C#Cc2ccccc2)cc1F [Compound 59, 4-chloro-1-(3-cyanopropyl)-N-(3-fluoro-5-(phenylethynyl)pyridin-2-yl)-1H-pyrazole-5-carboxamide] |
| 280 | Cc1cc(C#Cc2ccccc2)cc(F)c1NC(=O)c1c(Cl)cnn1C1CCOCC1 [Compound 180, 4-chloro-N-(2-fluoro-6-methyl-4-(phenylethynyl)phenyl)-1-(tetrahydro-2H-pyran-4-yl)-1H-pyrazole-5-carboxamide] |
| 160 | CCNC(=O)N1CCC(n2ncc(Cl)c2C(=O)Nc2ncc(C#Cc3cccc(F)c3)cc2C)CC1 [Compound 75, 4-(4-chloro-5-((5-((3-fluorophenyl)ethynyl)-3-methylpyridin-2-yl)carbamoyl)-1H-pyrazol-1-yl)-N-ethylpiperidine-1-carboxamide] |
| 270 | CC(C)(C)OC(=O)N1C[C@H]2C[C@H](n3ncc(Cl)c3C(=O)Nc3ncc(C#Cc4ccccc4)cc3F)C[C@H]2C1 [Compound 170, tert-butyl (3aR,5s,6aS)-5-(4-chloro-5-{[3-fluoro-5-(phenylethynyl)pyridin-2-yl]carbamoyl}-1H-pyrazol-1-yl)hexahydrocyclopenta[c]pyrrole-2(1H)-carboxylate] |
| 250 | CCNC(=O)N1CCC(n2ncc(Cl)c2C(=O)Nc2ncc(C#Cc3ccccc3)cc2F)CC1 [Compound 158, 4-(4-chloro-5-((3-fluoro-5-(phenylethynyl)pyridin-2-yl)carbamoyl)-1H-pyrazol-1-yl)-N-ethylpiperidine-1-carboxamide] |
| 210 | CC(=O)N1CCC(Cn2ncc(Cl)c2C(=O)Nc2ncc(C#Cc3cccs3)cc2C)CC1 [Compound 123, 1-((1-acetylpiperidin-4-yl)methyl)-4-chloro-N-(3-methyl-5-(thiophen-2-ylethynyl)pyridin-2-yl)-1H-pyrazole-5-carboxamide] |
| 130 | Cc1cc(C#Cc2cccs2)cnc1NC(=O)c1c(Cl)cnn1C1CC2(C1)CN(C(=O)C(C)C)C2 [Compound 46, 4-chloro-1-(2-isobutyryl-2-azaspiro[3.3]heptan-6-yl)-N-(3-methyl-5-(thiophen-2-ylethynyl)pyridin-2-yl)-1H-pyrazole-5-carboxamide] |
| 160 | CC(=O)N1CCC(n2ncc(Cl)c2C(=O)Nc2ncc(C#Cc3cccc(F)c3)cc2C)CC1 [Compound 71, 1-(1-acetylpiperidin-4-yl)-4-chloro-N-(5-((3-fluorophenyl)ethynyl)-3-methylpyridin-2-yl)-1H-pyrazole-5-carboxamide] |
| 180 | CC1CC1C(=O)N1CCC(n2ncc(Cl)c2C(=O)Nc2ncc(C#Cc3ccccc3)cc2F)CC1 (centres unmarked) [Compound 91, 4-chloro-N-(3-fluoro-5-(phenylethynyl)pyridin-2-yl)-1-(1-(2-methylcyclopropane-1-carbonyl)piperidin-4-yl)-1H-pyrazole-5-carboxamide] |
| 140 | O=C(Nc1ncc(C#Cc2ccccc2)cc1F)c1c(Cl)cnn1C1CCOCC1 [Compound 51, 4-chloro-N-(3-fluoro-5-(phenylethynyl)pyridin-2-yl)-1-(tetrahydro-2H-pyran-4-yl)-1H-pyrazole-5-carboxamide] |
| 270 | Cc1cc(C#Cc2ccccc2)cnc1NC(=O)c1c(Cl)cnn1C1CCN(C(=O)C(C)C)CC1 [Compound 169] |
